From ChEMBL document CHEMBL4229464, “Generation of methylated violapyrones with improved anti-influenza A virus activity by heterologous expression of a type III PKS gene in a marine Streptomyces strain” (Bioorg Med Chem Lett, 2018)

How the values were obtained:
[1] = Cytotoxicity against MDCK cells assessed as reduction in cell viability after 48 hrs by crystal violet staining based method; set-up: species or system Canis lupus familiaris; conditions: dog
Influenza A virus = assay: Antiviral activity against Influenza A virus (A/Virginia/ATCC1/2009(H1N1)) infected in MDCK cells assessed as inhibition of virus-induced cytopathicity after 48 hrs by crystal violet staining based method; type: functional, organism-based
Staphylococcus aureus = assay: Antibacterial activity against methicillin-resistant Staphylococcus aureus CCARM 3090 at 10 mg/ml after 20 hrs by agar diffusion method; type: functional; conditions: CCARM 3090, 20 h, read-out: IZ
H3N2 subtype = assay: Antiviral activity against Influenza A virus (A/Aichi/2/1968(H3N2)) infected in MDCK cells assessed as inhibition of virus-induced cytopathicity after 48 hrs by crystal violet staining based method; type: functional, organism-based

| Compound | CC50 at 48 h [1] | IC50 (Influenza A virus) | zone of inhibition at 10000 µg/mL (Staphylococcus aureus) | IC50 (H3N2 subtype) |
| --- | --- | --- | --- | --- |
| CCCCCCCc1coc(=O)c(C)c1O | 2200 µM | 74.3 µM | 11 mm | 74.3 µM |
| COc1c(CCCC(C)C)coc(=O)c1C | 2000 µM | 58.8 µM | 0 mm | 95 µM |
| Cc1c(O)c(CCCC(C)C)coc1=O | 1240 µM | 60.9 µM | 0 mm | 104 µM |
| CCCCCCCc1coc(=O)c(C)c1OC | 2230 µM | 30.6 µM | 0 mm | 45.3 µM |
| CCC(C)CCCCc1coc(=O)c(C)c1O (stereo not given) | 1620 µM | 79.3 µM | 18 mm | 82.3 µM |
| NC(=O)c1ncn([C@@H]2O[C@H](CO)[C@@H](O)[C@H]2O)n1 [RIBAVIRIN] | 1370 µM | 66.7 µM | – | 99.6 µM |
| COc1c(CCCCC(C)C)coc(=O)c1C | 1880 µM | 64.9 µM | 6 mm | 63.9 µM |
| CCC(C)CCCCc1coc(=O)c(C)c1OC (stereo not given) | 1550 µM | 68.4 µM | 0 mm | 72.8 µM |
| Cc1c(O)c(CCCCC(C)C)coc1=O | 1290 µM | 132 µM | 11 mm | 150 µM |
